Assay results: paper PMC8881610 (Nature Communications, 2022)
Several values for one entry are separate records, joined by “and”; a condition that tells them apart may be missing. Identical values can stand only once. Like-named read-outs stand apart in the source and are kept apart here. Where a SMILES comes first, the peptide text is derived from it. [ ]: non-standard residue; d: D form. Aib = CC(C)(N)C(=O)O

Experiments:
[1] = target: GLP-1R (Homo sapiens, UniProt P43220); experiment: cAMP accumulation assay, GLP-1R WT, mutant or modified constructs; type: cell-based; set-up: Flag; expressed in transfected cells; host or cells: HEK293T; settings: for EC50 / Emax: HEK293T; for Emax: HEK-293T
Method: (§1) Human embryonic kidney 293 cells containing SV40 large T-antigen (HEK293T) were cultured in DMEM (Gibco) supplemented with 10% (v/v) fetal bovine serum (FBS, Gibco), 1 mM sodium pyruvate (Gibco) and 100 units/mL penicillin and 100 μg/mL streptomycin at 37 °C in 5% CO2. Chinese hamster ovary (CHO-K1) cells were cultured in F-12 (Gibco) containing 10% FBS, 100 units/mL penicillin and 100 μg/mL streptomycin at 37 °C in 5% CO2. For cAMP and receptor expression assays, HEK293T cells were seeded into 6-well cell culture plates at a density of 7 × 10^5 cells per well. After overnight incubation, cells were transfected with GIPR, GLP-1R or GCGR construct using Lipofectamine 2000 or Lipofectamine 3000 transfection reagent (Invitrogen). For whole-cell binding assay, CHO-K1 cells were seeded into 96-well fibronectin-treated cell culture plates at a density of 3 × 10^4 cells per well. After overnight incubation, cells were transfected with GIPR, GLP-1R or GCGR construct using Lipofectamine 2000 transfection reagent (Invitrogen). Following 24 h culturing, the transfected cells were ready for use.
The human GLP-1R was modified with its native signal sequence (M1-P23) replaced by the HA signal peptide to facilitate receptor expression. To obtain a GLP-1R–Gs complex with good homogeneity and stability, we used the NanoBiT tethering strategy, in which the C terminus of GLP-1R was directly attached to LgBiT subunit followed by a TEV protease cleavage site and a double MBP tag. […] The constructs were cloned into both pcDNA3.1 and pFastBac vectors for functional assays in mammalian cells and protein expression in insect cells, respectively. Other constructs including the full-length and various mutants of human GLP-1R were cloned into pcDNA3.1 vector for cAMP accumulation and whole-cell binding assays.
For GIPR, GLP-1R and GCGR, multi-targeting agonist stimulated cAMP accumulation was measured by a LANCE Ultra cAMP kit (PerkinElmer). After 24 h culture, the transfected cells were seeded into 384-well microtiter plates at a density of 3,000 cells per well in HBSS supplemented with 5 mM HEPES, 0.1% (w/v) BSA or 0.1% (w/v) casein and 0.5 mM 3-isobutyl-1-methylxanthine. The cells were stimulated with different concentrations of peptide agonists for 40 min at RT. Eu-cAMP tracer and ULight^TM-anti-cAMP were then diluted by cAMP detection buffer and added to the plates separately to terminate the reaction. Plates were incubated at RT for 1 h and the fluorescence intensity measured at 620 nm and […] by an EnVision multilabel plate reader (PerkinElmer).

[2] = target: GCGR (Homo sapiens, UniProt P47871); experiment: Whole-cell binding assay, competition with 125I-GCG; set-up: V5 (C); 6×His (C); expressed in transfected cells; host or cells: CHO-K1
Method: as §1
For GLP-1R and GCGR, CHO-K1 cells (30,000 cells/well) were seeded into Isoplate-96 plates and incubated for 24 h at 37 °C in 5% CO2. The WT or mutant constructs were transiently transfected using Lipofectamine 2000 transfection reagent as previous described. They were then washed twice using F-12 with 0.1% BSA or 0.1% casein, 33 mM HEPES, and incubated for 2 h at 37 °C. […] Cells were washed three times with ice-cold PBS and lysed in PBS with 1% Triton X-100, 20 mM Tris-HCl. After addition of scintillation cocktail (PerkinElmer), radioactivity (CPM) was counted on a MicroBeta^2 microplate counter (PerkinElmer). Data were normalized to the WT response and analyzed using three-parameter logistic equation.

[3] = target: T1, GIPR (Homo sapiens, UniProt P48546); experiment: Whole-cell binding assay, competition with 125I-GIP1-42; set-up: acylated tirzepatide to the full-length or modified; Flag; expressed in transfected cells
T1 sequence (P48546 22-466): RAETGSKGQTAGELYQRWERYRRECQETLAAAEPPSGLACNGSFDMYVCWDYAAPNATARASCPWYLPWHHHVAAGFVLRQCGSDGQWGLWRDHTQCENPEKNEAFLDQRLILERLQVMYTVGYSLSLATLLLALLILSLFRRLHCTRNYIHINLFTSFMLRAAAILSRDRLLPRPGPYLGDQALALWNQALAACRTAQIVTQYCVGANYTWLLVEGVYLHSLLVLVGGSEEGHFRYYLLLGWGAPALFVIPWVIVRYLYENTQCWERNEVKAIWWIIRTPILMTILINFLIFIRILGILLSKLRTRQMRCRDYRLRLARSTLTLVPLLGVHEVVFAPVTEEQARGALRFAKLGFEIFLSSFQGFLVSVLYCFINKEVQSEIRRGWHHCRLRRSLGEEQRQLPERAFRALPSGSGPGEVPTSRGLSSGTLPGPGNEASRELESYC
Method: as §1
For GIPR, CHO-K1 cells were cultured in F-12 medium with 10% FBS and seeded at a density of 30,000 cells/well in Isoplate-96 plates (PerkinElmer). The WT or mutant GIPR was transiently transfected using Lipofectamine 2000 transfection reagent as previous described. They were then washed twice using F-12 with 0.1% BSA or 0.1% casein, 33 mM HEPES, and incubated for 2 h at 37 °C. […] Following incubation, cells were washed three times with ice-cold PBS and lysed by addition of 50 μL lysis buffer (PBS supplemented with 20 mM Tris-HCl, 1% Triton X-100, pH 7.4). Fifty µL of scintillation cocktail (OptiPhase SuperMix, PerkinElmer) were added and the plates were subsequently counted for radioactivity (counts per minute, CPM) in a MicroBeta^2 microplate counter (PerkinElmer).

[4] = GLP-1R WT, 0.1% BSA, read-out: cAMP accumulation Emax
[5] = GLP-1R WT, 0.1% casein, read-out: cAMP accumulation Emax
[6] = GIPR WT, 0.1% BSA, CHO-K1, read-out: Binding pIC50 (converted)
[7] = GIPR WT, 0.1% casein, CHO-K1, read-out: Binding pIC50 (converted)

GCGR, sequence (P47871 26-477): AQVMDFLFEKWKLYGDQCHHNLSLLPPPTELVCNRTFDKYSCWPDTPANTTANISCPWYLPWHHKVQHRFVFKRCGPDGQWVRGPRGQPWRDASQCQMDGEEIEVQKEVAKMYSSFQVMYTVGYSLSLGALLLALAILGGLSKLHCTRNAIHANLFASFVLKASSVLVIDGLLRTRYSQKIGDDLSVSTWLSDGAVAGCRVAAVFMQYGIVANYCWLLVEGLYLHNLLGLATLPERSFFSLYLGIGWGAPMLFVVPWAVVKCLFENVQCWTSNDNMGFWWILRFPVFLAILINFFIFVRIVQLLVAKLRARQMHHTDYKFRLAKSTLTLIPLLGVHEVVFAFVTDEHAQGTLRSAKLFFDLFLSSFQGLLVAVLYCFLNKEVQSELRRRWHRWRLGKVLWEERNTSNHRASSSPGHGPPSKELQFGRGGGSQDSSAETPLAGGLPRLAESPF
GLP-1R, sequence (P43220 24-463): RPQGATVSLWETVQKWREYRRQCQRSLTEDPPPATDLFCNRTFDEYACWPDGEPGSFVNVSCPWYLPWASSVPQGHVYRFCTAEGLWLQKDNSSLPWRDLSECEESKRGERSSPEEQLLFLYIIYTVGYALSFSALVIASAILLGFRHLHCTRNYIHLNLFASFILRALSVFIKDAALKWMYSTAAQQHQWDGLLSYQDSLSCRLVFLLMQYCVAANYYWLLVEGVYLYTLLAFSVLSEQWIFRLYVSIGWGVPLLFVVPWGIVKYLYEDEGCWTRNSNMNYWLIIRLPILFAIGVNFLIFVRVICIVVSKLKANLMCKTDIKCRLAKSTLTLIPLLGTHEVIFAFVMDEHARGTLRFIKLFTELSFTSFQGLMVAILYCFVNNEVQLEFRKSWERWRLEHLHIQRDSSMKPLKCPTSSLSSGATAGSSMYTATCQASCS

## CCCCCCCCCCCCCCCC(=O)N[C@@H](CCC(=O)NCCCC[C@H](NC(=O)[C@H](CC(=O)O)NC(=O)[C@H](CO)NC(=O)[C@@H](NC(=O)[C@H](Cc1ccccc1)NC(=O)[C@@H](NC(=O)CNC(=O)[C@H](CCC(N)=O)NC(=O)C(C)(C)NC(=O)[C@@H](N)Cc1c[nH]cn1)[C@@H](C)O)[C@@H](C)O)C(=O)N[C@@H](CO)C(=O)N[C@@H](CCCCN)C(=O)N[C@@H](Cc1ccc(O)cc1)C(=O)N[C@@H](CC(C)C)C(=O)N[C@@H](CC(=O)O)C(=O)N[C@@H](CCC(=O)O)C(=O)N[C@@H](CCCNC(=N)N)C(=O)N[C@@H](C)C(=O)N[C@@H](C)C(=O)N[C@@H](CCC(N)=O)C(=O)N[C@@H](CC(=O)O)C(=O)N[C@@H](Cc1ccccc1)C(=O)N[C@H](C(=O)N[C@@H](CCC(N)=O)C(=O)N[C@@H](Cc1c[nH]c2ccccc12)C(=O)N[C@@H](CC(C)C)C(=O)N[C@@H](CC(C)C)C(=O)N[C@@H](CC(=O)O)C(=O)NCC(=O)NCC(=O)N1CCC[C@H]1C(=O)N[C@@H](CO)C(=O)N[C@@H](CO)C(=O)NCC(=O)N[C@@H](C)C(=O)N1CCC[C@H]1C(=O)N1CCC[C@H]1C(=O)N1CCC[C@H]1C(=O)N[C@@H](CO)C(N)=O)C(C)C)C(=O)O [Peptide 20]
[1]; GLP-1R WT, read-out: cAMP pEC50 (converted)
  EC50: 0.00269 nM
[1]; GLP-1R, n = 4, SEM, read-out: cAMP pEC50 ± S.E.M. (converted)
  EC50: 0.00123 nM
[1]; [4]
  Emax: 99.24 ± 0.96%
[1]; [5]
  Emax: 98.5 ± 1.33%
[1]; GLP-1R WT, read-out: cAMP Emax
  Emax: 99.6 ± 1.37%
[1]; GLP-1R, n = 4, SEM, read-out: cAMP Emax ± S.E.M.
  Emax: 99.6 ± 1.17%
[2]; Fig. 7c receptor binding profile, n = 3 in duplicate, SEM, read-out: GCGR (pIC50 ± S.E.M.) (converted)
  IC50: 107 nM
[2]; GCGR WT, 0.1% BSA, CHO-K1, read-out: Binding pIC50 (converted)
  IC50: 55 nM
[2]; GCGR WT, 0.1% casein, CHO-K1, read-out: Binding pIC50 (converted)
  IC50: 16.6 nM
[2]; GCGR WT, CHO-K1
  binding Span: 99.29 ± 3.10 % WT
[2]; GCGR WT, CHO-K1, read-out: binding pIC50 (converted)
  IC50: 89.1 nM
[3]; Fig. 7c receptor binding profile, n = 3 in duplicate, SEM, read-out: GIPR (pIC50 ± S.E.M.) (converted)
  IC50: 6.61 nM
[3]; [6]
  IC50: 13.2 nM
[3]; GIPR WT, 0.1% casein, CHO-K1
  binding Span: 99.92 ± 6.37
[3]; [7]
  IC50: 3.39 nM
[3]; GIPR WT, CHO-K1
  binding Span: 97.43 ± 3.89 % WT
[3]; GIPR WT, CHO-K1, read-out: binding pIC50 (converted)
  IC50: 18.2 nM and 10.7 nM

## CC(C)C[C@H](NC(=O)[C@H](CC(C)C)NC(=O)[C@H](Cc1c[nH]c2ccccc12)NC(=O)[C@H](CCC(N)=O)NC(=O)[C@@H](NC(=O)[C@H](Cc1ccccc1)NC(=O)[C@H](CC(=O)O)NC(=O)[C@H](CCC(N)=O)NC(=O)[C@H](C)NC(=O)[C@H](C)NC(=O)[C@H](CCCNC(=N)N)NC(=O)[C@H](CCC(=O)O)NC(=O)[C@H](CC(=O)O)NC(=O)[C@H](CC(C)C)NC(=O)[C@H](Cc1ccc(O)cc1)NC(=O)[C@H](CCCCN)NC(=O)[C@H](CO)NC(=O)[C@H](CCCCN)NC(=O)[C@H](CC(=O)O)NC(=O)[C@H](CO)NC(=O)[C@@H](NC(=O)[C@H](Cc1ccccc1)NC(=O)[C@@H](NC(=O)CNC(=O)[C@H](CCC(N)=O)NC(=O)C(C)(C)NC(=O)[C@@H](N)Cc1c[nH]cn1)[C@@H](C)O)[C@@H](C)O)C(C)C)C(=O)N[C@@H](CC(=O)O)C(=O)NCC(=O)NCC(=O)N1CCC[C@H]1C(=O)N[C@@H](CO)C(=O)N[C@@H](CO)C(=O)NCC(=O)N[C@@H](C)C(=O)N1CCC[C@H]1C(=O)N1CCC[C@H]1C(=O)N1CCC[C@H]1C(=O)N[C@@H](CO)C(N)=O [Non-lipidated peptide 20] (H-H[Aib]QGTFTSDKSKYLDERAAQDFVQWLLDGGPSSGAPPPS-NH2; N-terminus and C-terminus assumed)
[1]; GLP-1R WT, 0.1% BSA, read-out: cAMP accumulation pEC50 (converted)
  EC50: 0.00288 nM
[1]; GLP-1R, 0.1% BSA
  influence on cAMP accumulation vs peptide 20: inappreciably influenced
[1]; [4]
  Emax: 99.7 ± 1.41%
[1]; [5]
  Emax: 99.2 ± 1.39%
[2]; GCGR WT, 0.1% BSA, CHO-K1
  binding Span: N.B.
  binding pIC50: N.B.
[2]; GCGR WT, 0.1% casein, CHO-K1
  binding Span: N.B.
  binding pIC50: N.B.
[3]; [6]
  IC50: 51.3 nM
[3]; [7]
  IC50: 170 nM
